Measurements from US10703748B2, “Diazanaphthalen-3-yl carboxamides and preparation and use thereof” (Samumed, LLC, priority 2017, dated 2020).

Columns and labels:
DYRK1A kinase = DYRK1A kinase (Homo sapiens, UniProt Q13627); test: DYRK1A kinase activity (Ser/Thr 18 peptide Z-lyte FRET assay); format: biochemical; conditions: recombinant DYRK1A, 30 μM ATP, one hour at room temperature;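 also: kinase activity read as coumarin/fluorescein emission ratio after development step, with unphosphorylated and phosphorylated peptide forms setting 0% and 100% controls, values from dose-response curves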
GSK3β kinase = GSK3β kinase (Homo sapiens, UniProt P49841); test: GSK3β kinase activity (Ser/Thr 09 peptide Z-lyte FRET assay); format: biochemical; conditions: recombinant kinase, 46 μM ATP, one hour at room temperature; read-out: EC50
Sequence of GSK3β kinase (P49841 whole entry): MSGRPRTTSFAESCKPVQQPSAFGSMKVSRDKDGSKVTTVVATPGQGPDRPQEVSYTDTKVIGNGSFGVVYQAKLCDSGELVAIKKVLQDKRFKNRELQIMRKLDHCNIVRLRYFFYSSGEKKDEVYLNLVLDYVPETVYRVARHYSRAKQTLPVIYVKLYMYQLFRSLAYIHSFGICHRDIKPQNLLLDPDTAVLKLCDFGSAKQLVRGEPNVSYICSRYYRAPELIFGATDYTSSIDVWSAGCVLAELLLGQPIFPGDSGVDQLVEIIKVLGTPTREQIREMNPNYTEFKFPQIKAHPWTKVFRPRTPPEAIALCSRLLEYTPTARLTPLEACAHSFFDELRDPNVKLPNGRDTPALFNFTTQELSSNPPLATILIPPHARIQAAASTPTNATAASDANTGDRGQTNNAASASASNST

[1] = test system: Tau phosphorylation at Ser396 (pSer396); test: Tau phosphorylation at Ser396 (pSer396) in SH-SY5Y cells, ELISA / western blot; format: cell-based, human; conditions: Homo sapiens; SH-SY5Y cells, overnight (16-18 h); read-out: pSer396 Tau EC50;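 also: decrease in pSer396 Tau measured in lysates of treated cells by colorimetric ELISA or chemiluminescent western blot, same pSer396 antibody for both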
Protocol: Two days before treatment, cells were seeded onto 96 well plates at 5×10^4 cells/well.
The above synthesized compounds were screened using the cell assay procedure to assess decrease Tau phosphorylation at Ser396 (pSer396) described below.
Cells were lysed with RIPA buffer complemented with phosphatase and protease inhibitors then lysates were spun down at 12,000 g for 10 min to remove any cellular debris.

[2] = test system: secreted cytokines TNFα, IL-6 and KC-GRO; test: Secreted cytokines in Lipopolysaccharide-stimulated BV-2 cells (Table 9 does not say which cytokine); format: cell-based, mouse; conditions: Mus musculus, BV-2, 5 h; read-out: EC50
Protocol: BV-2 cells (mouse microglial cells) were cultured in 1:1 DMEM medium supplemented with 10% FBS, and 1% penicillin/streptomycin.
BV-2 cells are plated at 35,000 cells/well in a volume of 100 μl for at least 4 hours before compounds are added. […] Compounds were added to cells overnight. […] Supernatant is removed and saved for further cytokine detection. The original plates with seeded cells were tested for cytotoxicity by measure of adenosine triphosphate (ATP) release by adding CellTiter-Glo® diluted 1:4 in distilled water (G7573, Promega) and transferring lysed cells to a completely black 96-well plate to be read with the Cytation3. Supernatant was then diluted 1:2 with a diluent from V-PLEX cytokine Kit and directly tested for the secreted cytokines TNFα, IL-6 and KC-GRO using electrochemiluminescence (Meso Scale Discovery). The standard curve for each cytokine was used to convert the electrochemiluminescent signal into pg of protein per mL.

[3] = test system: SW480 colon carcinoma cells; test: Cell viability assay (CellTiter-Glo); conditions: Homo sapiens; for EC50: SW480, 96 h; for inhibition at 10 µM: SW480, read-out: percent inhibition at 10 μM
[4] = test system: Wnt-responsive Sp5-Luc reporter in SW480 colon carcinoma cells; test: Screening assay for Wnt activity (Sp5-Luc reporter gene assay); conditions: Homo sapiens; for EC50: SW480; for inhibition at 10 µM: SW480, read-out: percent inhibition at 10 μM
IL-6 = IL-6 inhibition in LPS-stimulated human peripheral blood mononuclear cells (HTRF); conditions: Homo sapiens, PBMC; for EC50: 22 h; for inhibition at 10 µM: read-out: percentage in parentheses after EC50 >10
[5] = test system: α-smooth muscle actin (aSMA) positive LL29 cells; test: Inhibition of the fibrotic process: αSMA staining in TGF-β1 treated LL29 fibroblasts from IPF patients; conditions: Homo sapiens, Fibroblast; for EC50: 96 h; for inhibition at 10 µM: read-out: percentage in parentheses after EC50 >10
Protocol: Each compound was dissolved in DMSO as a 10 mM stock and used to prepare compound source plates. […] LL29 cells were plated at 1,500 cells/well in 70 μL/well F12 medium supplemented with 1% Fetal Bovine Serum. […] Wells treated with TGF-β1 and containing DMSO were used as positive control, and cells with only DMSO were negative control. Cells were incubated at 37° C. and 5% CO2 for 4 days. Following incubation for 4 days, SYTOX green nucleic acid stain (Life Technologies [Thermo Fisher Scientific]) was added to the wells at a final concentration of 1 μM and incubated at room temperature for 30 min. Cells were then fixed using 4% formaldehyde (Electron Microscopy Sciences), washed 3 times with PBS followed by blocking and permeabilization using 3% Bovine Serum Albumin (BSA; Sigma) and 0.3% Triton X-100 (Sigma) in PBS.

Compound	EC50 (DYRK1A kinase) [µM]	EC50 (GSK3β kinase) [µM]	EC50 [1] [µM]	EC50 [2] [µM]	EC50 [3] [µM]	EC50 [4] [µM]	EC50 (IL-6) [µM]	inhibition at 10 µM [4] [%]	inhibition at 10 µM (IL-6) [%]	EC50 [5] [µM]	inhibition at 10 µM [5] [%]	inhibition at 10 µM [3] [%]
O=C(Nc1ncc2ccc(-c3cncs3)cc2n1)C1CCN(C(=O)CN2CCCC2)CC1 [Compound 1524, 1-(2-(Pyrrolidin-1-yl)acetyl)-N-(7-(thiazol-5-yl)quinazolin-2-yl)piperidine-4-carboxamide]	0.007	0.407	> 10	3.6	> 10	> 10	> 10	13.4	50	4.78	–	18.1
CN1CCN(c2cc(C(=O)Nc3ncc4ccc(-c5cncs5)cc4n3)ccn2)CC1 [Compound 1536, 2-(4-Methylpiperazin-1-yl)-N-(7-(thiazol-5-yl)quinazolin-2-yl)isonicotinamide]	0.004	0.207	1.18	0.336	1.04	0.663	> 10	–	49.6	1.13	–	–
CO[C@H]1CC[C@@H](C(=O)Nc2ncc3ccc(-c4nnc(C)s4)cc3n2)CC1 [Compound 1612, cis-4-Methoxy-N-(7-(5-methyl-1,3,4-thiadiazol-2-yl)quinazolin-2-yl)cyclohexane-1-carboxamide]	0.021	0.049	1.1	2.2	> 10	> 10	> 10	37.9	6.3	> 10	42	23.8
Cc1nnc(-c2ccc3cnc(NC(=O)C4CCN(C(=O)c5ccccc5)CC4)nc3c2)s1 [Compound 1625, 1-Benzoyl-N-(7-(5-methyl-1,3,4-thiadiazol-2-yl)quinazolin-2-yl)piperidine-4-carboxamide]	0.025	0.008	0.402	0.436	> 10	> 10	> 10	37.3	4	1.77	–	18.8
Cn1cc(-c2cnc3cnc(NC(=O)C4CC4)cc3c2)cn1 [Compound 2722, N-(3-(1-Methyl-1H-pyrazol-4-yl)-1,7-naphthyridin-6-yl) cyclopropanecarboxamide]	0.023	0.326	6.01	0.822	> 10	> 10	8.9	13.7	–	1.01	–	31
Cn1cc(-c2cnc3cnc(NC(=O)C4CCNCC4)cc3c2)cn1 [Compound 2731, N-(3-(1-Methyl-1H-pyrazol-4-yl)-1,7-naphthyridin-6-yl)piperidine-4-carboxamide]	0.021	5.51	> 10	1.2	> 10	> 10	> 10	30.9	2.8	5.32	–	26.5
Cn1ncc(-c2cnc3cnc(NC(=O)C4CC5(C4)CN(CCF)C5)cc3c2)c1CN1CCCCC1 [Compound 3000, 2-(2-Fluoroethyl)-N-(3-(1-methyl-5-(piperidin-1-ylmethyl)-1H-pyrazol-4-yl)-1,7-naphthyridin-6-yl)-2-azaspiro[3.3]heptane-6-carboxamide]	0.01	0.166	1.83	0.307	5.95	1.95	2.27	–	–	9.89	–	–
Cn1cncc1-c1cnc2cnc(NC(=O)C3CCC(F)(F)CC3)cc2c1 [Compound 3120, 4,4-Difluoro-N-(3-(1-methyl-1H-imidazol-5-yl)-1,7-naphthyridin-6-yl) cyclohexane-1-carboxamide]	0.009	1.33	2.43	0.649	> 10	> 10	> 10	16.2	7.4	> 10	27	21.4
O=C(Nc1cc2cc(-c3cnco3)cnc2cn1)C1CCN(C(=O)CN2CCCC2)CC1 [Compound 3249, N-(3-(Oxazol-5-yl)-1,7-naphthyridin-6-yl)-1-(2-(pyrrolidin-1-yl)acetyl)piperidine-4-carboxamide]	0.026	6.12	10	1.2	> 10	> 10	8.32	31.5	–	7.07	–	26.7
Cn1cc(-c2cc3cc(NC(=O)C4CC4)ncc3cn2)cn1 [Compound 3629, N-(6-(1-Methyl-1H-pyrazol-4-yl)-2,7-naphthyridin-3-yl) cyclopropanecarboxamide]	0.007	0.002	0.021	5.7	0.951	0.396	2.77	–	–	0.097	–	–

Further lines, with some results ahead:

EC50 (DYRK1A kinase) [µM]	EC50 (GSK3β kinase) [µM]	EC50 [1] [µM]	EC50 [2] [µM]	EC50 [3] [µM]	EC50 [4] [µM]	EC50 (IL-6) [µM]	Compound	inhibition at 10 µM [4] [%]	inhibition at 10 µM (IL-6) [%]	EC50 [5] [µM]	inhibition at 10 µM [5] [%]	inhibition at 10 µM [3] [%]
0.039	0.166	3.7	3.9	8.86	> 10	> 10	Cc1cn2c(n1)CN(C(=O)Nc1ncc3ccc(-c4cnc(C)o4)cc3n1)CC2 [Compound 1491, 2-Methyl-N-(7-(2-methyloxazol-5-yl)quinazolin-2-yl)-5,6-dihydroimidazo [1,2-a]pyrazine-7(8H)-carboxamide]	25.2	2.6	> 10	6.1	–
0.014	0.253	5.4	1.08	> 10	> 10	> 10	CN(C)[C@H]1CC[C@H](C(=O)Nc2ncc3ccc(-c4cncs4)cc3n2)CC1 [Compound 1518, trans-4-(Dimethylamino)-N-(7-(thiazol-5-yl)quinazolin-2-yl)cyclohexane-1-carboxamide]	24.8	30.1	2.61	–	25.3
0.027	4.18	> 10	3.1	> 10	> 10	> 10	CN1CCC(C(=O)Nc2ncc3ccc(-c4cnsc4)cc3n2)CC1 [Compound 1598, N-(7-(Isothiazol-4-yl)quinazolin-2-yl)-1-methylpiperidine-4-carboxamide]	15.5	7.5	1.27	–	8.4
0.006	0.12	0.604	2.9	9.05	3.71	> 10	O=C(Nc1ncc2ccc(-c3cccnc3)cc2n1)C1CC1 [Compound 1670, N-(7-(Pyridin-3-yl)quinazolin-2-yl)cyclopropanecarboxamide]	–	7.2	4.85	–	–
0.03	3.73	> 10	0.109	> 10	> 10	> 10	CC(C)CN1CCC(C(=O)Nc2cc3cc(-c4cnn(C)c4)cnc3cn2)CC1 [Compound 2736, 1-Isobutyl-N-(3-(1-methyl-1H-pyrazol-4-yl)-1,7-naphthyridin-6-yl) piperidine-4-carboxamide]	19.3	0	> 10	17	10.7
0.002	0.004	0.079	> 10	9.58	0.219	9.04	Cn1cc(-c2cc3cc(NC(=O)C4CCN(CCC(F)(F)F)CC4)ncc3cn2)cn1 [Compound 3646, N-(6-(1-Methyl-1H-pyrazol-4-yl)-2,7-naphthyridin-3-yl)-1-(3,3,3-trifluoropropyl)piperidine-4-carboxamide]	–	–	> 10	12.9	–
0.007	0.021	0.192	6.8	6.9	0.512	> 10	C[C@H]1CCCN1CC(=O)Nc1cc2cc(-c3cnn(C)c3)ncc2cn1 [Compound 3674, (S)—N-(6-(1-Methyl-1H-pyrazol-4-yl)-2,7-naphthyridin-3-yl)-2-(2-methylpyrrolidin-1-yl)acetamide]	–	1.7	0.604	–	–
0.008	0.01	0.179	> 10	> 10	0.603	> 10	CN(CC(=O)Nc1cc2cc(-c3cnn(C)c3)ncc2cn1)C1CCC1 [Compound 3683, 2-(Cyclobutyl(methyl)amino)-N-(6-(1-methyl-1H-pyrazol-4-yl)-2,7-naphthyridin-3-yl)acetamide]	–	4.6	0.597	–	38.8
